Reference: the OligoGym collection
Bases are written 5' to 3'; sugars and linkages follow in the same order, as letters with counts (s phosphorothioate, o phosphodiester; PS: all linkages phosphorothioate). The collection does not say whether C is 5-methylated. l = locked nucleic acid (LNA); d = 2'-deoxy (DNA)

target: Tau; assay: rat primary cortical neurons, FLIPR, 25 uM ASO

| Sequence | calcium oscillation score |
| --- | --- |
| TCTCTGCTTACAAAATC (sugars l4 d9 l4, PS) | 66.8 % of control |
| AGAAATAAGTGGTAGT (sugars l3 d9 l4, PS) | 101 % of control |
| CCTTTGAAAGTCCTTT (sugars l2 d12 l2, PS) | 96.4 % of control |
| ACCCCACATTTGCAAAC (sugars l3 d12 l2, PS) | 63.5 % of control |
| CAACAAACATCTAAACACCT (sugars l4 d13 l3, PS) | 78.9 % of control |
| CGTTTTCTTACCACCC (sugars l2 d12 l2, PS) | 46.2 % of control |
| ACCCCGAATTTACACCC (sugars l1 d14 l2, PS) | 86.2 % of control |
| CTAATGAGCCACACTTGGAG (sugars l3 d14 l3, PS) | 46.5 % of control |
| GCCTAATGAGCCACAC (sugars l3 d10 l3, PS) | 70.6 % of control |
| TTATTTCCAAATTCACTTTT (sugars lllddldddddddddldlll, PS) | 108 % of control |
| ACACTGTCGTCGAATG (sugars l3 d10 l3, PS) | 9.52 % of control |
| TCCCAGCGTGATCTTCCATC (sugars l5 d11 l4, PS) | 85.2 % of control |
| ACATTCTATACTTCAG (sugars l4 d8 l4, PS) | 71.4 % of control |
| TTTATGATGGATGTTGCCTA (sugars l3 d14 l3, PS) | 6.64 % of control |
| TTGAAGTCCCGAGC (sugars l3 d8 l3, PS) | 0 % of control |
| ATTTTTACCAATTTGCC (sugars l2 d11 l4, PS) | 57 % of control |
| CAATTCTCAGCACACCA (sugars l4 d11 l2, PS) | 22.5 % of control |
| CCCTTAATTTCACCC (sugars l3 d9 l3, PS) | 103 % of control |
| ATTTCCAAATTCACTTTTAC (sugars llddlldddddddddlldll, PS) | 122 % of control |
| AATCAATTCTCATTTCAACC (sugars l4 d13 l3, PS) | 63.9 % of control |
| TCTCAGATTTTACTTCC (sugars l4 d11 l2, PS) | 49.3 % of control |
| TCCTAAGTCAACCACACC (sugars l2 d14 l2, PS) | 69 % of control |
| GCCTCATAAACCTAAT (sugars l3 d9 l4, PS) | 68.2 % of control |
| CCAATTAACCGAACTG (sugars l3 d10 l3, PS) | 55.2 % of control |
| CGTGATCTTCCATC (sugars l3 d8 l3, PS) | 85.1 % of control |
| CCAGCGTGATCTTCCATCAC (sugars l4 d11 l5, PS) | 124 % of control |
| TCCCAGCGTGATCTTCCATC (sugars l4 d11 l5, PS) | 55.4 % of control |

| Sequence | calcium oscillation score |
| --- | --- |
| GATATTCCACACATAA (sugars l4 d8 l4, PS) | 54.8 % of control |
| TTGGAGTGCTCTTAGCATCA (sugars l3 d14 l3, PS) | 7.78 % of control |
| GCAAACAGGATACAGT (sugars l3 d10 l3, PS) | 0 % of control |
| TAGTCACTCTGGTG (sugars l3 d8 l3, PS) | 81.9 % of control |
| CTCTTTCTTAATTCAGA (sugars l4 d10 l3, PS) | 60.1 % of control |
| GTCACCTTGCTCAGGT (sugars l3 d10 l3, PS) | 7.67 % of control |
| GGACGTTGCTAAGATC (sugars l3 d10 l3, PS) | 3.32 % of control |
| TCTCTAATTGTCCAATA (sugars l4 d9 l4, PS) | 69 % of control |
| TCATCGCTTCCAGTCC (sugars l3 d10 l3, PS) | 19.2 % of control |
| GGCCTGATCACAAACCCTGC (sugars l3 d14 l3, PS) | 9.07 % of control |
| TTATTTCCAAATTCACTTTT (sugars lldllddddddddddlldll, PS) | 121 % of control |
| CTCTTGACAGTCACTGCTGA (sugars l3 d14 l3, PS) | 29.4 % of control |
| ACCAATTAACCGAACTGCGA (sugars l3 d14 l3, PS) | 22.6 % of control |
| TGAGCACTAACTCTAAGTAG (sugars l3 d14 l3, PS) | 21.4 % of control |
| TGTCATCGCTTCCAGT (sugars l3 d10 l3, PS) | 88 % of control |
| TATTTCCAAATTCACTTTTA (sugars l2 d16 l2, PS) | ≥ 200 % of control |
| CTAGTTATACAGTTGGCCCT (sugars l3 d14 l3, PS) | 33.3 % of control |
| ATTTAATTTATTTTTTACTT (sugars l4 d12 l4, PS) | 50.1 % of control |
| AAACCATGATCTTAGG (sugars l3 d10 l3, PS) | 81.3 % of control |
| CCACCCAAACTCCAAGTT (sugars l2 d14 l2, PS) | 52 % of control |
| AAAATATCCTTACCATCCT (sugars l2 d13 l4, PS) | 73.9 % of control |
| TGGCTTTGGCGTTCTC (sugars l3 d10 l3, PS) | 28.7 % of control |
| TTAATTTCACCCTCAG (sugars l3 d10 l3, PS) | 41.7 % of control |
| TCACAACCCAAGATTCCC (sugars l2 d14 l2, PS) | 69.5 % of control |
| TCATCTTTTCTAGAACCC (sugars l3 d13 l2, PS) | 48.4 % of control |
| TGATGCAGGAGTTGTA (sugars l3 d10 l3, PS) | 7.62 % of control |
| ATTTCCAAATTCACTTTTAC (sugars l1 d17 l2, PS) | ≥ 200 % of control |
